Data as given in patent US20250361268A1, “NOVEL ANTI-INFLAMMATORY PEPTIDE AND USE THEREOF” (NOVACELL TECHNOLOGY INC., priority 2022, published 2025).
Peptide text beside a SMILES is read from it.

What was measured:
FPR2 = molecular target: T1, FPR2 (Homo sapiens, UniProt P25090); assay: Change in calcium activity by peptide (Fura-2) in RBL cells overexpressing FPR2; format: cell-based; conditions: calcium activity (Fura-2), graded per Table 3, read-out: EC50 for [Ca^2+] FPR2
T1 construct: expressed in transfected cells; host or cells: RBL cells (RBL-FPR2)
T1 sequence (P25090 1-351): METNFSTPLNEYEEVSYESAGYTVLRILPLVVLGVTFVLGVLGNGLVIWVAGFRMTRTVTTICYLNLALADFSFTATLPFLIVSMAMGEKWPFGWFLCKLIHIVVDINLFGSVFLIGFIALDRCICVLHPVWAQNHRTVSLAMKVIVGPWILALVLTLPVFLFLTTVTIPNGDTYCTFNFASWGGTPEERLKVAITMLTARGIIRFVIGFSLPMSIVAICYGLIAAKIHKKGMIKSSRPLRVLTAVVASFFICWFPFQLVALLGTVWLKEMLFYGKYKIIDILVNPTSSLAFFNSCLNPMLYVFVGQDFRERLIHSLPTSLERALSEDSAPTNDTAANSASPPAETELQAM
Method in brief: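 Peptide-induced intracellular calcium change measured by Fura-2 fluorescence on a plate reader. Cells: RBL line overexpressing FPR2, dye-loaded 1 h at 37 °C then 30 min at RT in dark; peptides from 0.5 mM water/50% DMSO stocks, diluted in HBSS with 20 mM HEPES.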

FPR1 = molecular target: T2, FPR1 (Homo sapiens, UniProt P21462); assay: Change in calcium activity by peptide, FPR1 activation effect; format: cell-based; conditions: calcium activity (Fura-2), graded per Table 3, read-out: EC50 for [Ca^2+] FPR1
T2 sequence (P21462 1-350): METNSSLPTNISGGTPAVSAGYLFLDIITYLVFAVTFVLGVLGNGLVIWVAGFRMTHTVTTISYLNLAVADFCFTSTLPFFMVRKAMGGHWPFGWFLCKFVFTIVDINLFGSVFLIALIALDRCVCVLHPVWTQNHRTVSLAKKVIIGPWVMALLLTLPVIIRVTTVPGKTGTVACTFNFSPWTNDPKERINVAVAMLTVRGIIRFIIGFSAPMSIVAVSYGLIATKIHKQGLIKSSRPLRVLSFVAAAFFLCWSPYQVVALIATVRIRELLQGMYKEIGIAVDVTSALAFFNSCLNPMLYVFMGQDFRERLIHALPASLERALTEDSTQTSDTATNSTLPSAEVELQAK
Method in brief: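 Calcium flux induced by peptide addition was monitored on a FlexStation 3 plate reader. Before this, cells seeded a day earlier (3×10^5/well) took up the Fura-2 dye for 1 h at 37 °C plus 30 min dark at room temperature.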

Row | EC50 (FPR2) [nM] | EC50 (FPR1) [nM] | Structure (SMILES)
1 | < 10 | 1000 to 10000 | CSCC[C@@H](NC(=O)[C@@H](NC(=O)[C@H](Cc1ccc(O)cc1)NC(=O)[C@H](Cc1ccc(O)cc1)NC(=O)[C@H](CCCCN)NC(=O)[C@H](Cc1c[nH]c2ccccc12)NC(=O)[C@@H](N)CCCCN)C(C)C)C(N)=O [Peptide 96] (HELM PEPTIDE1{K.W.K.Y.Y.V.[dM].[am]}$$$$V2.0)
2 | < 10 | 1000 to 10000 | CSCC[C@H](NC(=O)[C@@H](N)CCCNC(=N)N)C(=O)N[C@@H](CCCNC(=N)N)C(=O)N[C@@H](Cc1ccc(O)cc1)C(=O)N[C@@H](Cc1ccc(O)cc1)C(=O)N[C@H](C(=O)N[C@H](CCSC)C(N)=O)C(C)C [Peptide 97] (HELM PEPTIDE1{R.M.R.Y.Y.V.[dM].[am]}$$$$V2.0)
3 | < 10 | 1000 to 10000 | CSCC[C@H](NC(=O)[C@H](CCCNC(=N)N)NC(C)=O)C(=O)N[C@@H](CCCNC(=N)N)C(=O)N[C@@H](Cc1ccc(O)cc1)C(=O)N[C@@H](Cc1ccc(O)cc1)C(=O)N[C@H](C(=O)N[C@H](CCSC)C(N)=O)C(C)C [Peptide 98] (HELM PEPTIDE1{[ac].R.M.R.Y.Y.V.[dM].[am]}$$$$V2.0)
4 | 11 to 100 | 1000 to 10000 | CCCCCCCC(=O)N[C@@H](CCCNC(=N)N)C(=O)N[C@@H](CCSC)C(=O)N[C@@H](CCCNC(=N)N)C(=O)N[C@@H](Cc1ccc(O)cc1)C(=O)N[C@@H](Cc1ccc(O)cc1)C(=O)N[C@H](C(=O)N[C@H](CCSC)C(N)=O)C(C)C [Peptide 99] (HELM PEPTIDE1{[CCCCCCCC(=O)[*:2]].R.M.R.Y.Y.V.[dM].[am]}$$$$V2.0)
5 | < 10 | 1000 to 10000 | CSCC[C@H](N)C(=O)N[C@@H](CCCNC(=N)N)C(=O)N[C@@H](Cc1ccc(O)cc1)C(=O)N[C@@H](Cc1ccc(O)cc1)C(=O)N[C@H](C(=O)N[C@H](CCSC)C(N)=O)C(C)C [Peptide 100] (HELM PEPTIDE1{M.R.Y.Y.V.[dM].[am]}$$$$V2.0)
6 | < 10 | 1000 to 10000 | CSCC[C@@H](NC(=O)[C@@H](NC(=O)[C@H](Cc1c[nH]c2ccccc12)NC(=O)[C@H](Cc1ccc(O)cc1)NC(=O)[C@H](CCCNC(=N)N)NC(=O)[C@H](Cc1c[nH]c2ccccc12)NC(=O)[C@@H](N)CCCNC(=N)N)C(C)C)C(N)=O [Peptide 101] (HELM PEPTIDE1{R.W.R.Y.W.V.[dM].[am]}$$$$V2.0)
7 | < 10 | 101 to 1000 | CSCC[C@@H](NC(=O)[C@@H](NC(=O)[C@H](Cc1c[nH]c2ccccc12)NC(=O)[C@H](Cc1ccc(O)cc1)NC(=O)[C@H](CCCNC(=N)N)NC(=O)[C@H](Cc1c[nH]c2ccccc12)NC(C)=O)C(C)C)C(N)=O [Peptide 102] (HELM PEPTIDE1{[ac].W.R.Y.W.V.[dM].[am]}$$$$V2.0)
8 | 11 to 100 | 1000 to 10000 | CSCC[C@@H](NC(=O)[C@@H](NC(=O)[C@H](Cc1c[nH]c2ccccc12)NC(=O)[C@H](Cc1ccc(O)cc1)NC(=O)[C@H](CCCCN)NC(=O)[C@H](Cc1c[nH]c2ccccc12)NC(=O)[C@H](CCCCN)NC(C)=O)C(C)C)C(N)=O [Peptide 103] (HELM PEPTIDE1{[ac].K.W.K.Y.W.V.[dM].[am]}$$$$V2.0)
9 | < 10 | 1000 to 10000 | CSCC[C@H](NC(=O)[C@H](CCCNC(=N)N)NC(C)=O)C(=O)N[C@@H](CCCNC(=N)N)C(=O)N[C@@H](Cc1ccc(O)cc1)C(=O)N[C@@H](Cc1c[nH]c2ccccc12)C(=O)N[C@H](C(=O)N[C@H](CCSC)C(N)=O)C(C)C [Peptide 104] (HELM PEPTIDE1{[ac].R.M.R.Y.W.V.[dM].[am]}$$$$V2.0)
10 | < 10 | 101 to 1000 | CSCC[C@H](NC(C)=O)C(=O)N[C@@H](CCCNC(=N)N)C(=O)N[C@@H](Cc1ccc(O)cc1)C(=O)N[C@@H](Cc1c[nH]c2ccccc12)C(=O)N[C@H](C(=O)N[C@H](CCSC)C(N)=O)C(C)C [Peptide 105] (HELM PEPTIDE1{[ac].M.R.Y.W.V.[dM].[am]}$$$$V2.0)
11 | < 10 | 101 to 1000 | CSCC[C@H](NC(=O)[C@@H](N)CCCNC(=N)N)C(=O)N[C@@H](CCCNC(=N)N)C(=O)N[C@@H](Cc1ccc(O)cc1)C(=O)N[C@@H](Cc1c[nH]c2ccccc12)C(=O)N1CCC[C@H]1C(=O)N[C@H](CCSC)C(N)=O [Peptide 106] (HELM PEPTIDE1{R.M.R.Y.W.P.[dM].[am]}$$$$V2.0)
12 | < 10 | 101 to 1000 | CSCC[C@H](NC(=O)[C@H](CCCNC(=N)N)NC(C)=O)C(=O)N[C@@H](CCCNC(=N)N)C(=O)N[C@@H](Cc1ccc(O)cc1)C(=O)N[C@@H](Cc1c[nH]c2ccccc12)C(=O)N1CCC[C@H]1C(=O)N[C@H](CCSC)C(N)=O [Peptide 107] (HELM PEPTIDE1{[ac].R.M.R.Y.W.P.[dM].[am]}$$$$V2.0)
13 | < 10 | 101 to 1000 | CCCC(=O)N[C@@H](CCCNC(=N)N)C(=O)N[C@@H](CCSC)C(=O)N[C@@H](CCCNC(=N)N)C(=O)N[C@@H](Cc1ccc(O)cc1)C(=O)N[C@@H](Cc1c[nH]c2ccccc12)C(=O)N1CCC[C@H]1C(=O)N[C@H](CCSC)C(N)=O [Peptide 108] (HELM PEPTIDE1{[CCCC(=O)[*:2]].R.M.R.Y.W.P.[dM].[am]}$$$$V2.0)
14 | < 10 | 1000 to 10000 | CCCCCCCC(=O)N[C@@H](CCCNC(=N)N)C(=O)N[C@@H](CCSC)C(=O)N[C@@H](CCCNC(=N)N)C(=O)N[C@@H](Cc1ccc(O)cc1)C(=O)N[C@@H](Cc1c[nH]c2ccccc12)C(=O)N1CCC[C@H]1C(=O)N[C@H](CCSC)C(N)=O [Peptide 109] (HELM PEPTIDE1{[CCCCCCCC(=O)[*:2]].R.M.R.Y.W.P.[dM].[am]}$$$$V2.0)
15 | < 10 | 101 to 1000 | CSCC[C@H](N)C(=O)N[C@@H](CCCNC(=N)N)C(=O)N[C@@H](Cc1ccc(O)cc1)C(=O)N[C@@H](Cc1c[nH]c2ccccc12)C(=O)N1CCC[C@H]1C(=O)N[C@H](CCSC)C(N)=O [Peptide 110] (HELM PEPTIDE1{M.R.Y.W.P.[dM].[am]}$$$$V2.0)
16 | < 10 | 1000 to 10000 | CSCC[C@H](NC(C)=O)C(=O)N[C@@H](CCCNC(=N)N)C(=O)N[C@@H](Cc1ccc(O)cc1)C(=O)N[C@@H](Cc1c[nH]c2ccccc12)C(=O)N1CCC[C@H]1C(=O)N[C@H](CCSC)C(N)=O [Peptide 111] (HELM PEPTIDE1{[ac].M.R.Y.W.P.[dM].[am]}$$$$V2.0)
17 | < 10 | 1000 to 10000 | CCCC(=O)N[C@@H](CCSC)C(=O)N[C@@H](CCCNC(=N)N)C(=O)N[C@@H](Cc1ccc(O)cc1)C(=O)N[C@@H](Cc1c[nH]c2ccccc12)C(=O)N1CCC[C@H]1C(=O)N[C@H](CCSC)C(N)=O [Peptide 112] (HELM PEPTIDE1{[CCCC(=O)[*:2]].M.R.Y.W.P.[dM].[am]}$$$$V2.0)
18 | < 10 | 101 to 1000 | CSCC[C@@H](NC(=O)[C@@H]1CCCN1C(=O)[C@H](Cc1c[nH]c2ccccc12)NC(=O)[C@H](Cc1ccc(O)cc1)NC(=O)[C@H](CCCNC(=N)N)NC(=O)[C@H](Cc1c[nH]c2ccccc12)NC(=O)[C@H](CCCNC(=N)N)NC(C)=O)C(N)=O [Peptide 117] (HELM PEPTIDE1{[ac].R.W.R.Y.W.P.[dM].[am]}$$$$V2.0)
19 | < 10 | 101 to 1000 | CSCC[C@@H](NC(=O)[C@@H]1CCCN1C(=O)[C@H](Cc1c[nH]c2ccccc12)NC(=O)[C@H](Cc1ccc(O)cc1)NC(=O)[C@H](CCCNC(=N)N)NC(=O)[C@@H](N)Cc1c[nH]c2ccccc12)C(N)=O [Peptide 118] (HELM PEPTIDE1{W.R.Y.W.P.[dM].[am]}$$$$V2.0)
20 | < 10 | 101 to 1000 | CSCC[C@H](NC(=O)[C@H](CCCNC(=N)N)NC(C)=O)C(=O)N[C@@H](CCCNC(=N)N)C(=O)N[C@@H](Cc1ccc(O)cc1)C(=O)N[C@@H](Cc1ccc(O)cc1)C(=O)N1CCC[C@H]1C(=O)N[C@H](CCSC)C(N)=O [Peptide 119] (HELM PEPTIDE1{[ac].R.M.R.Y.Y.P.[dM].[am]}$$$$V2.0)
21 | < 10 | 101 to 1000 | CSCC[C@H](N)C(=O)N[C@@H](CCCNC(=N)N)C(=O)N[C@@H](Cc1ccc(O)cc1)C(=O)N[C@@H](Cc1ccc(O)cc1)C(=O)N1CCC[C@H]1C(=O)N[C@H](CCSC)C(N)=O [Peptide 120] (HELM PEPTIDE1{M.R.Y.Y.P.[dM].[am]}$$$$V2.0)
22 | < 10 | 101 to 1000 | CSCC[C@@H](NC(=O)[C@@H]1CCCN1C(=O)[C@H](Cc1ccc(O)cc1)NC(=O)[C@H](Cc1ccc(O)cc1)NC(=O)[C@H](CCCNC(=N)N)NC(=O)[C@H](Cc1c[nH]c2ccccc12)NC(=O)[C@H](CCCNC(=N)N)NC(C)=O)C(N)=O [Peptide 121] (HELM PEPTIDE1{[ac].R.W.R.Y.Y.P.[dM].[am]}$$$$V2.0)
